Source: patent US12653809B2, “Urea, amide, and substituted heteroaryl compounds for CBL-B inhibition” (Nurix Therapeutics, Inc., priority 2019, dated 2026)
Where two headings read alike, the source gives them in different places.

Target: T1, Cbl-b (truncated variant, UniProt number Q13191) (Homo sapiens, UniProt Q13191)
T1 construct: made in house
Test: Cbl-b activity assay (TR-FRET, interaction of Cbl-b with UbcH5B-Ub)
Format: biochemical

[1] = Biological Example 1A, low or high conditions not stated, read-out: IC50 values in the Cbl-b inhibition assay of Biological Example 1A
[2] = high conditions: 100 mM NaCl, 60 nM Src kinase, 12 nM Cbl-b, read-out: Cbl-b activity IC50

T1 sequence (Q13191 36-427): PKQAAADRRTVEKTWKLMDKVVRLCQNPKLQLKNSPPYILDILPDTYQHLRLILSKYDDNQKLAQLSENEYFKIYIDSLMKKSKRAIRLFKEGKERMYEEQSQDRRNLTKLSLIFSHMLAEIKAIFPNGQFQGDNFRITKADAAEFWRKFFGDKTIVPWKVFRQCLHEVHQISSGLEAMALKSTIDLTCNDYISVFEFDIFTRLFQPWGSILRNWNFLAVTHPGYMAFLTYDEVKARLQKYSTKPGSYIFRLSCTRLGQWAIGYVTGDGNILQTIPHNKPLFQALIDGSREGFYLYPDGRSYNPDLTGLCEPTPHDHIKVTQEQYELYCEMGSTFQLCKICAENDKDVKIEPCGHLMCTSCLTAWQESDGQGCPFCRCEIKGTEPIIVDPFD

Row | Compound | IC50 [1] [nM] | IC50 [2] [nM] | IC50 (low conditions: 50 mM NaCl, 30 nM Src kinase, 12 nM Cbl-b, read-out: Cbl-b activity IC50) [nM]
1 | C[C@H](Sc1nncn1C)c1cccc(-n2cc(-c3cccc(C#N)c3)nn2)c1 [Example 98, (S)-3-(1-(3-(1-(4-methyl-4H-1,2,4-triazol-3-ylthio)ethyl)phenyl)-1H-1,2,3-triazol-4-yl)benzonitrile] | ≥ 5000 | ≥ 5000 | –
2 | C[C@@H](Sc1nncn1C)c1cccc(-n2ncc(-c3ccccc3)n2)c1 [Example 100, (R)-2-(3-(1-((4-methyl-4H-1,2,4-triazol-3-yl)thio)ethyl)phenyl)-4-phenyl-2H-1,2,3-triazole] | ≥ 5000 | ≥ 5000 | –
3 | CC(Sc1nncn1C)c1ccnc(-n2ncc(-c3ccccc3)n2)c1 (stereo not drawn) [Example 101, 4-(1-((4-methyl-4H-1,2,4-triazol-3-yl)thio)ethyl)-2-(4-phenyl-2H-1,2,3-triazol-2-yl)pyridine] | ≥ 5000 | ≥ 5000 | –
4 | C[C@@H](Sc1nncn1C)c1cccc(-c2cc(-c3ccccc3)n[nH]2)c1 [Example 103, (R)-4-methyl-3-((1-(3-(3-phenyl-1H-pyrazol-5-yl)phenyl)ethyl)thio)-4H-1,2,4-triazole] | ≥ 5000 | ≥ 5000 | –
5 | COc1cccc(-c2cc(-c3cccc(C(C)Sc4nncn4C)c3)[nH]n2)c1 (stereo not drawn) [Example 104, 3-((1-(3-(3-(3-methoxyphenyl)-1H-pyrazol-5-yl)phenyl)ethyl)thio)-4-methyl-4H-1,2,4-triazole] | 1000 to 5000 | 1000 to 5000 | –
6 | C[C@@H](Sc1nncn1C)c1cccc(-c2n[nH]c3ccccc23)c1 [Example 108, (R)-3-(3-(1-((4-methyl-4H-1,2,4-triazol-3-yl)thio)ethyl)phenyl)-1H-indazole] | 1000 to 5000 | 1000 to 5000 | –
7 | C[C@H](Cc1nncn1C)c1cccc(-c2n[nH]c3c(N4CCC(O)CC4)ccnc23)c1 [Example 117, (R)-1-(3-(3-(1-(4-methyl-4H-1,2,4-triazol-3-yl)propan-2-yl)phenyl)-1H-pyrazolo[4,3-b]pyridin-7-yl)piperidin-4-ol] | – | 1000 to 5000 | –
8 | C[C@H](Cc1nncn1C)c1cccc(-c2n[nH]c3cccnc23)c1 [Example 118, (R)-3-(3-(1-(4-methyl-4H-1,2,4-triazol-3-yl)propan-2-yl)phenyl)-1H-pyrazolo[4,3-b]pyridine] | – | 1000 to 5000 | –
9 | Cc1ccc2[nH]nc(-c3cccc([C@H](C)Cc4nncn4C)c3)c2n1 [Example 119, (R)-5-methyl-3-(3-(1-(4-methyl-4H-1,2,4-triazol-3-yl)propan-2-yl)phenyl)-1H-pyrazolo [4,3-b]pyridine] | – | 1000 to 5000 | –
10 | C[C@H](Cc1nncn1C)c1cccc(-c2n[nH]c3cc(C4CCC4)cnc23)c1 [Example 120, (R)-6-cyclobutyl-3-(3-(1-(4-methyl-4H-1,2,4-triazol-3-yl)propan-2-yl)phenyl)-1H-pyrazolo[4,3-b]pyridine] | – | 1000 to 5000 | –
11 | C[C@H](Sc1nncn1C)c1ccnc(NC(=O)Nc2ccccn2)c1 [Example 121, (S)-1-(4-(1-((4-methyl-4H-1,2,4-triazol-3-yl)thio)ethyl)pyridin-2-yl)-3-(pyridin-2-yl)urea] | – | ≥ 5000 | –
12 | CC(Sc1nncn1C)c1cccc(C(=O)Nc2cc3ccccc3cn2)c1 (stereo not drawn) [Example 122, N-(isoquinolin-3-yl)-3-(1-((4-methyl-4H-1,2,4-triazol-3-yl)thio)ethyl)benzamide] | < 100 | – | < 100
13 | CC1CN(C(=O)Nc2cccc([C@H](C)Sc3nncn3C)c2)CC(=O)N1C (stereo partly drawn) [Example 123, 3,4-dimethyl-N-(3-((S)-1-((4-methyl-4H-1,2,4-triazol-3-yl)thio)ethyl)phenyl)-5-oxopiperazine-1-carboxamide] | – | ≥ 5000 | –
14 | C[C@H](Sc1nncn1C)c1cccc(NC(=O)N2CCCCC2)c1 [Example 124, (S)—N-(3-(1-((4-methyl-4H-1,2,4-triazol-3-yl)thio)ethyl)phenyl)piperidine-1-carboxamide] | – | ≥ 5000 | –
15 | C[C@H](Sc1nncn1C)c1cccc(NC(=O)N2CCc3nocc3C2)c1 [Example 125, (S)—N-(3-(1-((4-methyl-4H-1,2,4-triazol-3-yl)thio)ethyl)phenyl)-6,7-dihydroisoxazolo[4,3-c]pyridine-5(4H)-carboxamide] | – | ≥ 5000 | –
16 | C[C@H](Sc1nncn1C)c1cccc(NC(=O)N2CCC23CCN(C)CC3)c1 [Example 126, (S)-7-methyl-N-(3-(1-((4-methyl-4H-1,2,4-triazol-3-yl)thio)ethyl)phenyl)-1,7-diazaspiro[3.5]nonane-1-carboxamide] | – | ≥ 5000 | –
17 | C[C@H](Sc1nncn1C)c1cccc(NC(=O)N2CCC(c3ccccc3)C2)c1 (stereo partly drawn) [Example 127, N-(3-((S)-1-((4-methyl-4H-1,2,4-triazol-3-yl)thio)ethyl)phenyl)-3-phenylpyrrolidine-1-carboxamide] | – | ≥ 5000 | –
18 | C[C@H](Sc1nncn1C)c1cccc(NC(=O)N2CCOCC2)c1 [Example 128, N-[3-[(1S)-1-[(4-methyl-4H-1,2,4-triazol-3-yl)sulfanyl]ethyl]phenyl]morpholine-4-carboxamide] | – | ≥ 5000 | –
19 | C[C@H](Sc1nncn1C)c1cccc(NC(=O)NC2CCCN(c3cccnn3)C2)c1 (stereo partly drawn) [Example 129, 1-(3-((S)-1-((4-methyl-4H-1,2,4-triazol-3-yl)thio)ethyl)phenyl)-3-(1-(pyridazin-3-yl)piperidin-3-yl)urea] | – | ≥ 5000 | –
20 | C[C@H](Sc1nncn1C)c1cccc(NC(=O)N2CCC23CCOC3)c1 (stereo partly drawn) [Example 130, N-(3-((S)-1-((4-methyl-4H-1,2,4-triazol-3-yl)thio)ethyl)phenyl)-6-oxa-1-azaspiro[3.4]octane-1-carboxamide] | – | ≥ 5000 | –
21 | C[C@H](Sc1nncn1C)c1cccc(NC(=O)N2CCOC(CC(F)(F)F)C2)c1 (stereo partly drawn) [Example 131, N-(3-((S)-1-((4-methyl-4H-1,2,4-triazol-3-yl)thio)ethyl)phenyl)-2-(2,2,2-trifluoroethyl)morpholine-4-carboxamide] | – | ≥ 5000 | –
22 | C[C@H](Sc1nncn1C)c1cccc(NC(=O)N2CC(C)(F)C2)c1 [Example 132, 3-fluoro-3-methyl-N-[3-[(1S)-1-[(4-methyl-4H-1,2,4-triazol-3-yl)sulfanyl]ethyl]phenyl]azetidine-1-carboxamide] | – | ≥ 5000 | –
23 | C[C@H](Sc1nncn1C)c1cccc(NC(=O)N2CC3(CCC3O)C2)c1 (stereo partly drawn) [Example 133, 5-hydroxy-N-(3-((S)-1-((4-methyl-4H-1,2,4-triazol-3-yl)thio)ethyl)phenyl)-2-azaspiro[3.3]heptane-2-carboxamide] | – | ≥ 5000 | –

More lines, now with the values ahead:

Row | IC50 [1] [nM] | IC50 [2] [nM] | IC50 (low conditions: 50 mM NaCl, 30 nM Src kinase, 12 nM Cbl-b, read-out: Cbl-b activity IC50) [nM] | Compound
24 | 100 to 1000 | 100 to 1000 | – | C[C@H](Sc1nncn1C)c1cccc(-n2ncc(-c3ccccc3)n2)c1 [Example 99, (S)-2-(3-(1-((4-methyl-4H-1,2,4-triazol-3-yl)thio)ethyl)phenyl)-4-phenyl-2H-1,2,3-triazole]
25 | 100 to 1000 | 100 to 1000 | – | C[C@H](Sc1nncn1C)c1cccc(-c2cc(-c3ccccc3)n[nH]2)c1 [Example 102, (S)-4-methyl-3-((1-(3-(3-phenyl-1H-pyrazol-5-yl)phenyl)ethyl)thio)-4H-1,2,4-triazole]
26 | – | 100 to 1000 | – | C[C@H](Cc1nncn1C)c1cccc(-c2cc(-c3ccccn3)n[nH]2)c1 [Example 105, (R)-2-(5-(3-(1-(4-methyl-4H-1,2,4-triazol-3-yl)propan-2-yl)phenyl)-1H-pyrazol-3-yl)pyridine]
27 | – | 100 to 1000 | – | C[C@H](Cc1nncn1C)c1cccc(-c2cc(-c3ncccn3)n[nH]2)c1 [Example 106, (R)-2-(3-(3-(1-(4-methyl-4H-1,2,4-triazol-3-yl)propan-2-yl)phenyl)-1H-pyrazol-5-yl) pyrimidine]
28 | – | 100 to 1000 | – | C[C@H](Sc1nncn1C)c1cccc(-c2n[nH]c3ccccc23)c1 [Example 107, (S)-3-(3-(1-((4-methyl-4H-1,2,4-triazol-3-yl)thio)ethyl)phenyl)-1H-indazole]
29 | – | 100 to 1000 | – | C[C@H](Cc1nncn1C)c1cccc(-c2n[nH]c3c(N4CCC(O)CC4)cc(C(F)(F)F)nc23)c1 [Example 109, (R)-1-(3-(3-(1-(4-methyl-4H-1,2,4-triazol-3-yl)propan-2-yl)phenyl)-5-(trifluoromethyl)-1H-pyrazolo[4,3-b]pyridin-7-yl)piperidin-4-ol]
30 | – | 100 to 1000 | – | C[C@H](Cc1nncn1C)c1cccc(-c2n[nH]c3c(N4CC(O)C4)cc(C(F)(F)F)nc23)c1 [Example 110, (R)-1-(3-(3-(1-(4-methyl-4H-1,2,4-triazol-3-yl)propan-2-yl)phenyl)-5-(trifluoromethyl)-1H-pyrazolo[4,3-b]pyridin-7-yl)azetidin-3-ol]
31 | – | 100 to 1000 | – | C[C@H](Cc1nncn1C)c1cccc(-c2n[nH]c3c(N4CC[C@H](O)C4)cc(C(F)(F)F)nc23)c1 [Example 111, (S)-1-(3-(3-((R)-1-(4-methyl-4H-1,2,4-triazol-3-yl)propan-2-yl)phenyl)-5-(trifluoromethyl)-1H-pyrazolo[4,3-b]pyridin-7-yl)pyrrolidin-3-ol]
32 | – | 100 to 1000 | – | C[C@H](Cc1nncn1C)c1cccc(-c2n[nH]c3c(N4CC[C@@H](O)C4)cc(C(F)(F)F)nc23)c1 [Example 112, (R)-1-(3-(3-((R)-1-(4-methyl-4H-1,2,4-triazol-3-yl)propan-2-yl)phenyl)-5-(trifluoromethyl)-1H-pyrazolo[4,3-b]pyridin-7-yl)pyrrolidin-3-ol]
33 | < 100 | < 100 | – | C[C@H](Cc1nncn1C)c1cccc(-c2n[nH]c3c(CN4CC[C@H](F)C4)cc(C(F)(F)F)nc23)c1 [Example 113, 3-[(2R)-2-[3-(7-[[(3S)-3-fluoropyrrolidin-1-yl]methyl]-5-(trifluoromethyl)-1H-pyrazolo[4,3-b]pyridin-3-yl)phenyl]propyl]-4-methyl-4H-1,2,4-triazole]
34 | 100 to 1000 | 100 to 1000 | – | C[C@H](Cc1nncn1C)c1cccc(-c2n[nH]c3ccc(C(F)(F)F)nc23)c1 [Example 116, (R)-3-(3-(1-(4-methyl-4H-1,2,4-triazol-3-yl)propan-2-yl)phenyl)-5-(trifluoromethyl)-1H-pyrazolo[4,3-b]pyridine]
